According to patent US7517840B2, “Optimized perfumery for rinse-off products” (Givaudan Fragrances Corporation, priority 2005, dated 2009):
“And” between values parts separate entries of the source, which are not always exact repeats. Equal entries are not always repeated. Where two headings read alike, the source gives them in different places.

Columns and labels:
[1] = cited from earlier work; for exp ODT water: Booleans database; for Odor Detection Threshold: Table 24, Floral fragrance
[2] = GC-MS headspace release profile of perfume in shampoo, 1/100 dilution in water; format: physicochemical; conditions: Tropical Fruit Perfume
Description: Experimental Procedure: Individual odorant to be tested was added to 20 g of shampoo formulation (see formula below in Table 4) at 0.1%.
A 10 gram sample of formulation and fragrance was added to an empty 1000 ml pyrex beaker. This beaker was then filled with 1000 ml of 120 F tap water. Beaker with diluted shampoo sample was then immediately placed into a semi-enclosed plexiglass chamber.
Headspace Sampling: Once beaker was placed into chamber a Carboxan SPME field fiber was held at the top-side opening of the chamber over the beaker containing the sample. […] […] Top of plexiglass chamber was held open for entire 5 minutes of headspace sampling.

Row | Compound | GC Abundance ([2]; 50 seconds) | GC Abundance ([2]; 40 seconds) | GC Abundance ([2]; 30 seconds) | further results
1 | Cc1ccc(C(C)C)c(O)c1 [5-Methyl-2-isopropylphenol] | – | – | – | exp ODT water [1]: 400 ppb
2 | O=C1CCCCCCCCCCCCCCO1 [EXALTOLIDE TOTAL] | 50 | – | – | –
3 | O=C1CCCCCCCCCCCC(=O)OCCO1 [ETHYLENE BRASSYLATE] | 20 | – | – | –
4 | CCCCCOC(C)=O [Pentyl Acetate] | – | – | – | exp ODT water [1]: 43 ppb
5 | CC(C)=CCCC(C)CCCC(C)C=O (stereo not shown) [ADOXAL, 2,6,10-Trimethyl-9-undecenal] | 3000 | 300 | – | –
6 | CC(C)=CCCC(C)CCO (stereo not shown) [CITRONELLOL AJ, FCC, CITRONELLOL] | 7000 | 7000 | 7000 | GC Abundance ([2]; 20 seconds): 7000
7 | C=C(C)C1CC=C(C)C(=O)C1 (stereo not shown) [I-1-Methyl-4-isopropenyl-6-cyclohexen-2-one] | – | – | – | exp ODT water [1]: 50 ppb
8 | CCCCOC(C)=O [Butyl acetate] | – | – | – | exp ODT water [1]: 44-88 ppb
9 | C/C=C/C(=O)C1C(C)C=CCC1(C)C (stereo not shown) [δ-DAMASCONE] | – | – | – | ODT ([1]; Table 28, fig note): 50 ppb or less
10 | C/C=C/C(=O)C1=C(C)CCCC1(C)C [BETA DAMASCONE FAB, β-damascone] | – | – | – | Odor Detection Threshold [1]: 50 ppb or less; ODT ([1]; Table 30, berry note): 50 ppb or less
11 | CC/C=C\CCOC(=O)OC [LIFFAROME] | 3000 | 3000 | 3000 | GC Abundance ([2]; 20 seconds): 3000
12 | CC=CC(=O)C1=C(C)C=CCC1(C)C [DAMASCENONE, 1-(2,6,6-Trimethylcyclohexa-1,3-dienyl)-2-buten-1-one] | 1000 | – | – | exp ODT water [1]: 0.002 ppb
13 | CCCCCCC(C=O)=Cc1ccccc1 [HEXYL CINNAMIC ALDEHYDE, hexyl cinnamic aldehyde] | 9000 | 2000 | – | –
14 | CCCC(=O)OCC [ETHYL BUTYRATE, Ethyl butyrate] | 800 | 2000 | 2800 | GC Abundance ([2]; 10 seconds): 2800; GC Abundance ([2]; 20 seconds): 2800; exp ODT water [1]: 1 ppb
15 | CCOC(=O)C1OC1(C)c1ccccc1 (stereo not shown) [Ethyl 2,3-epoxy-3-methyl-3-phenylpropionate] | – | – | – | exp ODT water [1]: 25 ppb
16 | CC/C=C\CCOC(C)=O [CIS-3-HEXENYL ACETATE] | 14000 | 14000 | 14000 | GC Abundance ([2]; 20 seconds): 5000
17 | CC1=CCC(CCC(C)C(C)O)C1(C)C (stereo not shown) [SANDALORE] | 2000 | – | – | –
18 | OCc1ccccc1 [BENZYL ALCOHOL] | 100 | 50 | – | –
19 | CC(=O)OC(C)(C)Cc1ccccc1 [DIMETHYL BENZYL CARBINYL ACETATE] | 8000 | 8000 | 2000 | –
20 | CC=CC(=O)C1C(C)=CCCC1(C)C (stereo not drawn) [alpha-DAMASCONE, α-1-(2,6,6-Trimethyl-2-cyclohexen-1-yl)-2-buten-1-one] | 5000 | 1000 | – | exp ODT water [1]: 1.5 ppb; ODT ([1]; Table 17, apple note compounds): 50 ppb or less
21 | CCCCCOC(=O)CCC [Pentyl butyrate] | – | – | – | exp ODT water [1]: 44-87 ppb

Row | Compound | GC Abundance ([2]; 50 seconds) | GC Abundance ([2]; 40 seconds) | GC Abundance ([2]; 30 seconds) | further results
22 | CCCC(C)C(=O)OCC (stereo not shown) [MANZANATE, Ethyl 2-methylpentanoate] | 1500 | 3000 | 4000 | GC Abundance ([2]; 10 seconds): 1000; GC Abundance ([2]; 20 seconds): 4000; exp ODT water [1]: 0.0030 ppb; ODT ([1]; Table 17, apple note compounds): 50 ppb or less; odor detection threshold in water ([1]; text b188): 0.003 parts per billion
23 | CC/C(=C\CC1CC=C(C)C1(C)C)CO (stereo not shown) [BACDANOL] | 5000 | 100 | – | –
24 | CCC(=O)OCc1ccccc1 [BENZYL PROPIONATE] | 6000 | 6000 | 6000 | GC Abundance ([2]; 20 seconds): 2000
25 | CCCCCC1C(=O)CCC1CC(=O)OC (stereo not shown) [HEDIONE] | 4000 | – | – | Odor Detection Threshold [1]: 50 ppb or less
26 | CC1=C(O)C(=O)C(C)O1 (stereo not shown) [STRAWBERRY FURANONE] | – | – | – | ODT ([1]; Table 30, berry note): 50 ppb or less
27 | C=CC(C)(O)CCC=C(C)CC (mixture of isomers) [ETHYL LINALOOL] | 10000 | 10000 | 10000 | GC Abundance ([2]; 20 seconds): 5000
28 | VERTOFIX COEUR | 50 | – | – | –
29 | CC(=O)OC1CC2CC1C1CC=CC21 (stereo not shown) | – | – | – | Odor Detection Threshold [1]: 50 ppb or less
30 | CCC(=O)OC/C=C(\C)CCC=C(C)C [trans-3,7-Dimethyl-2,6-octadien-1-yl propanoate] | – | – | – | exp ODT water [1]: 10 ppb
31 | CC/C=C\CCO [CIS-3-HEXEN-1-OL] | 14000 | 14000 | 14000 | GC Abundance ([2]; 20 seconds): 14000
32 | CCOC(=O)CC1(C)OCCO1 [FRUCTONE] | 5000 | 5000 | 5000 | GC Abundance ([2]; 20 seconds): 3000; ODT ([1]; Table 17, apple note compounds): 50 ppb or less
33 | CC1(C)CCC[C@]2(C)[C@H]3CCO[C@]3(C)CC[C@@H]12 [AMBROXAN] | 1000 | – | – | –
34 | CCCCCC1CCC(=O)O1 (stereo not shown) [ALDEHYDE C-18] | 4000 | 4000 | 2000 | GC Abundance ([2]; 20 seconds): 2000
35 | CC(C)=CC1CC(C)CCO1 (stereo not drawn) [ROSE OXIDE (HIGH CIS), Tetrahydro-4-methyl-2-(2-methylpropen-1-yl)pyran] | 14000 | 14000 | 14000 | GC Abundance ([2]; 20 seconds): 10000; exp ODT water [1]: 0.5 ppb
36 | CCOC(=O)C1OC1c1ccccc1 (stereo not shown) [ETHYL PHENYL GLYCIDATE] | – | – | – | ODT ([1]; Table 30, berry note): 50 ppb or less
37 | CCCCCCC1CCC(=O)O1 (stereo not shown) [GAMMA-DECALACTONE, 5-Hexyldihydro-2(3H)-furanone] | 7000 | 4000 | – | –
38 | CC1=CC(C)C(C=O)CC1 (stereo not shown) [TRIPLAL] | 6000 | 10000 | 14000 | GC Abundance ([2]; 10 seconds): 1000; GC Abundance ([2]; 20 seconds): 14000
39 | CC=Cc1ccc(O)c(OC)c1 [1-Hydroxy-2-methoxy-4-propenylbenzene] | – | – | – | exp ODT water [1]: 30-40 ppb
40 | CC1OC(C)C2Cc3ccccc3C2O1 (stereo not shown) [MAGNOLAN/CORPS 719] | 3000 | 1000 | – | –
41 | CC(=O)OCc1ccccc1 [BENZYL ACETATE] | 18000 | 18000 | 17000 | GC Abundance ([2]; 20 seconds): 12000
42 | CC(C)CC1CC(C)(O)CCO1 (stereo not shown) [FLOROL] | 15000 | 10000 | – | –

Row | Compound | GC Abundance ([2]; 50 seconds) | GC Abundance ([2]; 40 seconds) | GC Abundance ([2]; 30 seconds) | further results
43 | C=CCOC(=O)CCC1CCCCC1 [ALLYL CYCLOHEXYL PROPIONATE] | 10000 | 7000 | – | –
44 | CC(=O)OC1CCC(C(C)(C)C)CC1 (stereo not shown) [VERTENEX HC] | 10000 | 8000 | 2000 | –
45 | CC(=O)C=CC1=C(C)CCCC1(C)C [IONONE BETA PURE, 4-(2,6,6-Trimethyl-1-cyclohexen-1-yl)-3-buten-2-one] | 18000 | 10000 | 2000 | exp ODT water [1]: 4-6 ppb; Odor Detection Threshold [1]: 50 ppb or less
46 | C=CC(C)CCCC(C)(C)O (stereo not shown) [DIHYDROMYRCENOL] | 15000 | 15000 | 15000 | GC Abundance ([2]; 10 seconds): 500; GC Abundance ([2]; 20 seconds): 15000
47 | CC(C=O)Cc1ccc2c(c1)OCO2 (stereo not shown) [HELIONAL] | 5000 | 500 | – | –
48 | CC(C)=CCCC(C)C=O (stereo not shown) [MELONAL, 2,6-Dimethyl-5-heptenal] | – | – | – | exp ODT water [1]: 16 ppb; ODT ([1]; Table 26, cucumber-melon note): 50 ppb or less; odor detection threshold values in water [1]: 16 ppb
49 | CC(C)c1cccc(C(C)CC=O)c1 (stereo not shown) [FLORHYDRAL] | 10000 | 9000 | – | Odor Detection Threshold [1]: 50 ppb or less
50 | CC(=O)/C=C/C1C(C)=CCCC1(C)C (stereo not drawn) [IONONE ALPHA, alpha ionone] | – | – | – | exp ODT water [1]: 0.4-10 ppb
51 | C=CC(C)(O)CCC=C(C)C (stereo not shown) [LINALOOL, linalool] | 18000 | 18000 | 18000 | GC Abundance ([2]; 10 seconds): 500; GC Abundance ([2]; 20 seconds): 18000; Odor Detection Threshold [1]: 50 ppb or less
52 | COC(=O)c1ccccc1N [METHYL AN[…], METHYL ANTHRANILATE] | – | – | – | Odor Detection Threshold [1]: 50 ppb or less
53 | CCCCCCCC=O [1-Octanal] | – | – | – | exp ODT water [1]: 30 ppb
54 | Cc1ccc2c(c1)OCC(=O)CO2 [CALONE] | 1000 | – | – | –
55 | C=CCOC(=O)CCCCCC [ALLYL HEPTOATE] | 12000 | 12000 | 10000 | GC Abundance ([2]; 20 seconds): 4000
56 | COC(=O)c1c(C)cc(O)c(C)c1O [METHYL ATRATATE] | 50 | – | – | –
57 | CC(=O)OC(C)(C)C1CC=C(C)CC1 (stereo not shown) [TERPINYL ACETATE] | 9000 | 9000 | 1000 | –
58 | CCCCCCCCCC=CC=O [MANDARIN ALDEHYDE] | – | – | – | ODT ([1]; Table 32, citrus note): 50 ppb or less
59 | CCC(C)(O)CCC=C(C)C (stereo not shown) [DIHYDROLINALOOL] | 3000 | 3000 | 3000 | GC Abundance ([2]; 20 seconds): 3000
60 | CCC=C(C)C(O)CCCCC (stereo not shown) [UNDECAVERTOL, 4-Methyl-3-decen-5-ol] | 10000 | 10000 | – | –
61 | COc1cc(C=O)ccc1O [VANILLIN NF, 4-Hydroxy-3-methoxybenzaldehyde] | – | – | – | exp ODT water [1]: 25-58 ppb and 20-200 ppb
